Measurements from patent publication US4017487A, “7β-(D-5-amino-5-carboxyvaleramido )-7-methoxy-3-substituted-3-cephem-4-carboxylic acid antibiotics” (priority 1974, dated 1977).
Several values for one entry are separate records, joined by “and”; a condition that tells them apart may be missing. Equal entries are not always repeated. Entries after “also recorded” stand apart in the source; their conditions may differ. Where two headings read alike, the source gives them in different places.

Columns and labels:
Bacillus sp. = assay: In vitro disc-plate agar diffusion, antibacterial spectrum (7 mm = no zone); assay type: cell-based; conditions: 16 h, 166 μg/ml, inoculum 5 ml/150 ml, 25° C., read-out: Inhibition Zone Diameter
Bacillus subtilis = assay: as above; assay type: cell-based; conditions: 16 h, read-out: Inhibition Zone Diameter
Salmonella gallinarum = assay: as above; assay type: cell-based; conditions: Salmonella enterica, 16 h, 166 μg/ml, inoculum 10 ml/150 ml, 25° C., read-out: Inhibition Zone Diameter
Vibrio percolans = assay: as above; assay type: cell-based; conditions: Comamonas terrigena, 16 h; 166 μg/ml; inoculum 10 ml/150 ml; 27° C.; read-out: Inhibition Zone Diameter
Xanthomonas vesicatoria = assay: as above; assay type: cell-based; conditions: 16 h, read-out: Inhibition Zone Diameter
Escherichia coli strains = assay: microbe, parasite or virus in culture; assay type: cell-based; conditions: 16 h, read-out: Inhibition Zone Diameter, 166 μg/ml, Pleocidin-resistant, 37° C.
Aerobacter aerogenes = assay: In vivo mouse protection test; set-up: species or system white Swiss mice; conditions: s.c. × two doses
Source text: (§1) Methods: The method employed in this characterization is as follows: Female white Swiss mice, average weight 20-23 grams, were infected intraperitoneally with 3-20 times the number of organisms calculated to be lethal for 50% of the infected control animals (3-20 LD50 doses). At the time of infection and again six hours later, therapy was given by the designated route. Controls of the virulence of the culture and the toxicity of the antibiotic for uninfected mice were included in the tests. Seven days after infection the test was considered complete and the amount of the antibiotic (I) that would be required to protect 50% of the infected and treated animals was calculated by the method of Knudsen and Curtis; J. Amer. Stat. Assoc. Vol. 42: page 282 (1947).
(§2) The method employed in these studies is the same as described above with regard to the in vivo characterization of 810A. The results of these tests are described below in Table XIb:
(§3) Administration was by subcutaneous injection. At the completion of the test period, usually seven days after administration, the amount of product required to protect 50% of the mice (ED50) from this otherwise fatal injection was calculated: […]

[1] = system: Diplococcus pneumoniae 2400; assay: In vivo mouse protection test; set-up: species or system white Swiss mice; conditions: s.c. × two doses
Source text: as §1, §2, §3

Escherichia coli = assay: In vivo mouse protection test; set-up: species or system white Swiss mice; conditions: s.c. × two doses
Source text: as §1, §2, §3

Klebsiella pneumoniae AD = assay: In vivo mouse protection test; set-up: species or system white Swiss mice; conditions: s.c. × two doses
Source text: as §1, §2, §3

Klebsiella pneumoniae B = assay: In vivo mouse protection test; set-up: species or system white Swiss mice; conditions: s.c. × two doses
Source text: as §1, §2, §3

Paracolobactrum arizonae = assay: In vivo mouse protection test; set-up: species or system white Swiss mice; conditions: s.c. × two doses
Source text: as §1, §2, §3

Pasteurella multocida = assay: In vivo mouse protection test; set-up: species or system white Swiss mice; conditions: s.c. × two doses
Source text: as §1, §2, §3

Proteus mirabilis = assay: In vivo mouse protection test; set-up: species or system white Swiss mice; conditions: s.c. × two doses
Source text: as §1, §2, §3

Proteus morganii 3202 = assay: In vivo mouse protection test; set-up: species or system white Swiss mice; conditions: s.c. × two doses
Source text: as §1, §2, §3

Proteus vulgaris = assay: In vivo mouse protection test; set-up: species or system white Swiss mice; conditions: s.c. × two doses
Source text: as §1, §2, §3

[2] = system: Salmonella schottmuelleri; assay: In vivo mouse protection test; set-up: species or system white Swiss mice; conditions: s.c. × two doses
Source text: as §1, §2, §3

Salmonella typhosa = assay: In vivo mouse protection test; set-up: species or system white Swiss mice; conditions: s.c. × two doses
Source text: as §1, §2, §3

Proteus morganii 356 [3] = assay: In vivo mouse protection test, cephalosporin-resistant clinical isolate; set-up: species or system white Swiss mice; conditions: s.c. × 2 doses
Source text: as §1
In addition to the aforementioned in vivo trials of the product, a clinical isolate of Proteus morganii 356 which is resistant to cephalosporins and capable of degrading cephalosporin C, was employed in a mouse protection test performed in the same manner as reported above.

[4] = system: gram-negative and gram-positive infections; assay: In vivo protection against infection (general statements); set-up: species or system mice; conditions: for in vivo protection / activity: mouse
Source text: as §1
The method employed in these studies is the same as described above with regard to the in vivo characterization of 810A.

[5] = Blood appearance and urinary excretion; conditions: in vivo
cephalosporinases = assay: Resistance to cephalosporinases; assay type: biochemical
[6] = system: gram-negative and gram-positive bacteria; assay: Antibacterial activity (general statements); assay type: cell-based
[7] = Isoelectric point and pH stability; assay type: physicochemical
[8] = system: degradative bacteria / enzymatic degradation; assay: Resistance to enzymatic degradation / bacterial inactivation (general statements); assay type: biochemical
Source text: Bacterial Inactivation with 810A: An in vitro study was designed to determine the resistance of Antibiotic 810A, to bacterial inactivation as compared with cephalosporin C, cephaloridine and cephalothin.

Proteus morganii 251 = conditions: washed bacterial cells, 4 h, pH 7.5
Proteus morganii 356 [9] = conditions: washed bacterial cells, 4 h, pH 7.5
Proteus mirabilis 241 = conditions: washed bacterial cells, 4 h, pH 7.5
Escherichia coli 236 = assay: Bacterial inactivation; conditions: four hours; B. subtilis (MB-964); 240 min
Vibrio percolans MB-1272 = assay: Disc-plate assay using Vibrio percolans; conditions: broth
[10] = system: Alcaligenes viscosus (MB-12); assay: Bacterial inactivation, washed bacterial cells; conditions: 4 hour incubation; assayed on B. subtilis (MB-964) plates

SMILES: CO[C@@]1(NC(=O)CCC[C@@H](N)C(=O)O)C(=O)N2C(C(=O)O)=C(COC(N)=O)CS[C@@H]21 [Example 842A]
- zone of inhibition at 166 µg/mL (Bacillus sp.): 8 mm
- zone of inhibition at 166 µg/mL (Bacillus subtilis): 13 mm
- zone of inhibition at 166 µg/mL (Salmonella gallinarum): 21 mm
- zone of inhibition at 166 µg/mL (Vibrio percolans): 56 mm
- zone of inhibition at 166 µg/mL (Xanthomonas vesicatoria): 19 mm
- zone of inhibition at 166 µg/mL (Escherichia coli strains): 18 mm
- ED50 by Subcutaneous Route × Two Doses (Aerobacter aerogenes): 49 µg
- ED50 by Subcutaneous Route × Two Doses [1]: 566 µg
- ED50 by Subcutaneous Route × Two Doses (Escherichia coli): 200 µg
- ED50 by Subcutaneous Route × Two Doses (Klebsiella pneumoniae AD): 125 µg
- ED50 by Subcutaneous Route × Two Doses (Klebsiella pneumoniae B): 125 µg
- ED50 by Subcutaneous Route × Two Doses (Paracolobactrum arizonae): 125 µg
- ED50 by Subcutaneous Route × Two Doses (Pasteurella multocida): 57 µg
- ED50 by Subcutaneous Route × Two Doses (Proteus mirabilis): 276 µg
- ED50 by Subcutaneous Route × Two Doses (Proteus morganii 3202): 276 µg
- ED50 by Subcutaneous Route × Two Doses (Proteus vulgaris): 51 µg
- ED50 by Subcutaneous Route × Two Doses [2]: 103 µg
- ED50 by Subcutaneous Route × Two Doses (Salmonella typhosa): 33 µg and 34 µg
- ED50 by Subcutaneous Route × 2 Doses (average of Two Trials) (Proteus morganii 356 [3]): 273 µg
- in vivo protection / activity [4]: protects against infection with three species of Proteus, two of Salmonella, one strain of Escherichia coli, two of Klebsiella and also against Paracolobactrum arizonae, Aerobacter aerogenes, Pasteurella multocida and Diplococcus pneumoniae 2400
- in vivo protection / activity ([4]; listed as Antibiotic 842A): effectiveness in vivo on Proteus morganii and an effectiveness against the following gram-negative bacteria: Escherichia coli, Proteus vulgaris, Proteus mirabilis, Proteus morganii, Salmonella schottmuelleri, Klebsiella pneumoniae AD, Klebsiella pneumoniae B, and Paracolobactrum arizonae
- oral protection against infections ([4]; oral): protects against infections due to Paracolobactrum arizonae 3720, Proteus vulgaris 1810, and Salmonella schottmuelleri 3010
- appearance in the blood [5]: appears rapidly in the blood
- resistance to cephalosporinases (cephalosporinases): greater resistance to cephalosporinases
- antibacterial activity [6]: exhibits activity against Salmonella schottmuelleri 3010, S. gallinarum and S. typhosa; also recorded: inhibits the growth of the following gram-negative bacteria: Escherichia coli, Proteus vulgaris, Alcaligenes faecalis, Brucella bronchiseptica, Salmonella gallinarum, Vibrio percolans and Xanthomonas vesicatoria; also recorded: inhibits the growth of the following gram-positive bacteria: Staphylococcus aureus, Sarcina lutea and Bacillus subtilis
- antibacterial activity ([6]; listed as Antibiotic 842A): enhanced activity against gram-negative microorganisms
- apparent isoelectric point [7]: ~3.5 pH
- pH stability [7]: unstable above pH 9.0; also recorded: relatively stable at pH 1.5; also recorded: unstable above pH 7
- resistance to enzymatic degradation ([8]; compared with cephalosporin C): more resistant to enzymatic degradation than cephalosporin C
- resistance to bacterial inactivation ([8]; compared with other cephalosporins): more stable than the latter against certain microorganisms; also recorded: more resistant than cephalosporin C to inactivation by A. faecalis, A. viscosus, Escherichia coli 236, Proteus morganii 251, Proteus morganii 236 and Proteus mirabilis 241
- percent inactivation (Proteus morganii 251): 80%
- percent inactivation (Proteus morganii 356 [9]): 69%
- percent inactivation (Proteus mirabilis 241): 5%
- percent inactivation (Escherichia coli 236): 38%
- inhibition zone (Vibrio percolans MB-1272; 1:10 dilution, Example 10): 21.5 mm.
- inhibition zone (Vibrio percolans MB-1272; 4 days, 0.5 inch discs, Example 9): 33 mm.
- inhibition zone (Vibrio percolans MB-1272; four days, 0.5 inch discs, Example 8): 31.5 mm.
- percent inactivation [10]: 54.4%
